Here are results for three molecules from patent EP1849784A1, “Indoline-substituted pyrazoline compounds, their preparation and use as medicaments” (LABORATORIOS DEL DR. ESTEVE, S.A., priority 2006, dated 2007).

The subject of assay [1] is cannabinoid receptors. Description: Mouse tetrad model, antagonistic effect against Win 55212-2. It is filed as in vivo, Male NMRI mice. The settings on record: for Antagonistic Effect in (%): against Win 55212-2 (1.25 mg/kg intravenous), substance injected 5 minutes before, tetrad parameter not specified; for Antagonism (%): summary table 1. From the text:
Substances with affinity for cannabinoid receptors are known to produce a wide range of pharmacological effects. It is also known that intravenous administration of a substance with affinity for cannabinoid receptors in mice produces analgesia , hypothermia, sedation and catalepsy. Individually, none of these effects can be considered as proof that a tested substance has affinity for cannabinoid-receptors, since all of these effects are common for various classes of centrally active agents. However, substances, which show all of these effects, i.e. substances that are active in this so-called tetrad model are considered to have affinity for the cannabinoid receptors. It has further been shown that cannabinoid receptor antagonists are higly effective in blocking the effects of a cannabinoid agonist in the mouse tetrad model.
The tetrad model is described, for example, in the publication of A. C. Howlett et al, International Union of Pharmacology XXVII. Classification of Cannabinoid Receptors, Pharmacol Rev 54,161-202, 2002 and David R. Compton et al., "In-vivo Characterization of a Specific Cannabinoid Receptor Antagonist (SR141716A) :Inhibition of Tetrahydrocannbinol- induced Responses and Apparent Agonist Activity", J. Pharmacol. Exp. Ther. 277 , 2, 586-594, 1996. The corresponding parts of the description are hereby incorporated by reference.
Male NMRI mice with a weight of 20-30 g (Harlan, Barcelona, Spain) are used in all of the following experiments.
Before testing in the behavioral procedures given below, mice are acclimatized to the experimental setting. Pre-Treatment control values are determined for analgesia hot plate latency (in seconds), rectal temperature, sedation and catalepsy.
In order to determine the agonistic activty of the substance to be tested, the mice are injected intravenously with the substance to be tested or the vehicle alone. 15 minutes after injection, latency in hot plate analgesia is measured. Rectal temperature, sedation and catalepsy are measured 20 minutes after injection.
In order to determine the antagonistic activity the identical procedure is used as for the determination of the agonistic effects, but with the difference that the substance to be evaluated for its antagonistic activity is injectected 5 minutes before the intravenous injection of 1.25 mg/kg Win-55,212 a known cannabinoid-receptor agonist.
The hot plate analgesia is determined according to the method described in Woolfe D. et al. "The evaluation of analgesic action of pethidine hydrochloride (Demerol)", J. Pharmacol. Exp. Ther. 80, 300-307,1944. The respective description is hereby incorporated by reference and forms part of the present disclosure.
The mice are placed on a hot plate (Harvard Analgesimeter) at 55 ± 0.5 °C until they show a painful sensation by licking their paws or jumping and the time for these sensations to occur is recorded. This reading is considered the basal value (B). The maximum time limit the mice are allowed to remain on the hot plate in absence of any painful response is 40 seconds in order to prevent skin damage. This period is called the cut-off time (PC).
Fifteen minuts after the administration of the substance to be tested, the mice are again placed on the hot plate and the afore described procedure is repeated. This period is called the post-treatment reading (PT).
The degree of analgesia is calculated from the formula: % MPE of Analgesia = (PT-B)/(PC-B) × 100 [formula] MPE = Maximum possible effect.
Sedation and ataxia is determined according to the method described in Desmet L. K. C. et al. "Anticonvulsive properties of Cinarizine and Flunarizine in Rats and Mice", Arzneim. -Forsch. (Frug Res) 25, 9, 1975. The respective description is hereby incorporated by reference and forms part of the present disclosure.
The chosen scoring system is • 0: no ataxia; • 1: doubful; • 2: obvious calmness and quiet; • 3 pronounced ataxia; prior to as well as after treatment. […]

The target of assay [2] is T1, CB1-Receptor (Homo sapiens, UniProt P21554).
T1 construct: purchased Receptor Biology, Inc
Description: In-vitro determination of affinity to CB1-Receptor (radioligand binding). The settings on record: transfected human CB1 receptors; radioligand [^3H]-CP55940; read-out: CB1-Receptor Radiologand:[^3H]-CP55940 IC50. How it is done:
The in-vitro determination of the affinity of the inventive quaternary ammonium salts of substituted pyrazoline compounds to CB1/CB2Rezeptors is carried out as described in the publication of Ruth A. Ross, Heather C. Brockie et al., "Agonist-inverse agonist characterization at CB1 and CB2 cannabinoid receptors of L-759633, L759656 and AM630", British Journal of Pharmacology, 126, 665-672, (1999), whereby the transfected human CB1 and CB2 receptors of Receptor Biology, Inc. are used. The radioligand used for both receptors is [^3H]-CP55940. The respective parts of the description are hereby incorporated by reference and forms part of the present disclosure.

T1 sequence (P21554 whole entry): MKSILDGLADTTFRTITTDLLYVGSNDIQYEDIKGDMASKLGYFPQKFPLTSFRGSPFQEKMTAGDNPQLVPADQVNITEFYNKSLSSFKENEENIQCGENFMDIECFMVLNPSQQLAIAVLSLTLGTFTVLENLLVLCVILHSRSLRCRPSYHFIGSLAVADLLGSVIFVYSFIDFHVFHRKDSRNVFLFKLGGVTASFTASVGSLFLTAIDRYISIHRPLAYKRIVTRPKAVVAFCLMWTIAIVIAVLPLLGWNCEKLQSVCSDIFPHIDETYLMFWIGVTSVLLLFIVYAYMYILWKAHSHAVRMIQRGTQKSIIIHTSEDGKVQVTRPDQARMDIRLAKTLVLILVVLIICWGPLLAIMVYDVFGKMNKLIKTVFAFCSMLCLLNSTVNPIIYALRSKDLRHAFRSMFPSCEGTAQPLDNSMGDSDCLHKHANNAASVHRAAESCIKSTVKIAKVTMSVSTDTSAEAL

`CC1Cc2ccccc2N1NC(=O)C1=NN(c2ccc(Cl)cc2Cl)C(c2ccc(Cl)cc2)C1` (stereo not shown) [Example 1, 5-(4-chlorophenyl)-1-(2,4-dichlorophenyl)-N-(2-methylindolin-1-yl)-4,5-dihydro-1H-pyrazole-3-carboxamide]: in assay [1], the “Antagonistic Effect in (%)” value came out at 33% and the “Antagonism (%)” value was 33%.
For the molecule `O=C(NN1CCc2ccccc21)C1=NN(c2ccc(Cl)cc2Cl)C(c2ccc(Cl)cc2)C1` (stereo not shown) [Example 2, 5-(4-chlorophenyl)-1-(2,4-dichlorophenyl)-N-(indolin-1-yl)-4,5-dihydro-1H-pyrazole-3-carboxamide], the half-inhibitory concentration (IC50) in assay [2] was 100 nM. In addition, in assay [1], the “Antagonistic Effect in (%)” value was found to be 65±15% and the “Antagonism (%)” value is given as 65 ± 15%.
In the case of `O=C(NN1CCc2ccccc21)C1=NN(c2ccc(Cl)cc2Cl)C(c2ccc(Br)cc2)C1` (stereo not shown) [Example 6, 5-(4-bromophenyl)-1-(2,4-dichlorophenyl)-N-(indolin-1-yl)-4,5-dihydro-1H-pyrazole-3-carboxamide], in assay [1], the “Antagonistic Effect in (%)” value came out at 88 ± 10% and the “Antagonism (%)” value is given as 88 ± 10%.
